PMC6864590, “Planar Cell Polarity Effector Proteins Inturned and Fuzzy Form a Rab23 GEF Complex” (Current Biology, 2019)
Positions count from the first letter of the chain named.

Legend:
Rab23 [1] = target: T1, Rab23 (Homo sapiens, UniProt Q9ULC3); experiment: basal GTP hydrolysis endpoint, charcoal assay; type: biochemical; details: labelled compound; 30°C, 60 min, no GAP
T1 construct: hexahistidine-GST-tagged (pFAT2), expressed in E. coli BL21(DE3) pRIL, Ni-NTA purified, tags kept
T1 sequence (Q9ULC3 1-237 limits assumed): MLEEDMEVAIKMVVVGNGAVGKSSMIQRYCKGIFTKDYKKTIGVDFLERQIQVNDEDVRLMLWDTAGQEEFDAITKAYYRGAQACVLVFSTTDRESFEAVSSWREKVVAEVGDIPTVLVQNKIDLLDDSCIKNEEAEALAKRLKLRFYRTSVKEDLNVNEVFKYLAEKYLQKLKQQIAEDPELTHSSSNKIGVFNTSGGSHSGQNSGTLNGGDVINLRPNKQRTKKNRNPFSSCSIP

Rab23 [2] = target: T2, Rab23 (Homo sapiens, UniProt Q9ULC3, C85R); experiment: basal GTP hydrolysis endpoint, charcoal assay; type: biochemical; details: labelled compound; 30°C, 60 min, no GAP
T2 construct: hexahistidine-GST-tagged (pFAT2), expressed in E. coli BL21(DE3) pRIL, Ni-NTA purified, tags kept
T2 sequence (Q9ULC3 1-237 C85R limits assumed): T1 sequence (Q9ULC3 1-237 limits assumed) with C85R

Rab23 [3] = target: T3, Rab23 (Homo sapiens, UniProt Q9ULC3, N121I); experiment: basal GTP hydrolysis endpoint, charcoal assay; type: biochemical; details: labelled compound; 30°C, 60 min, no GAP
T3 construct: hexahistidine-GST-tagged (pFAT2), expressed in E. coli BL21(DE3) pRIL, Ni-NTA purified, tags kept
T3 sequence (Q9ULC3 1-237 N121I limits assumed): T1 sequence (Q9ULC3 1-237 limits assumed) with N121I

Rab23 [4] = target: T4, Rab23 (Homo sapiens, UniProt Q9ULC3, M12K); experiment: basal GTP hydrolysis endpoint, charcoal assay; type: biochemical; details: labelled compound; 30°C, 60 min, no GAP
T4 construct: hexahistidine-GST-tagged (pFAT2), expressed in E. coli BL21(DE3) pRIL, Ni-NTA purified, tags kept
T4 sequence (Q9ULC3 1-237 M12K limits assumed): T1 sequence (Q9ULC3 1-237 limits assumed) with M12K

Rab23 [5] = target: T2, Rab23; experiment: radiolabelled nucleotide binding, GST pull-down; details: labelled compound; pH 6.8
Rab38 = target: T5, Rab38 (Homo sapiens, UniProt P57729); experiment: [3H]-GDP release GEF endpoint assay, glutathione-Sepharose capture; type: binding; details: labelled compound; Hps1-Hps4 GEF, Mg-GTP, pH 6.8, 30°C
T5 construct: GST-tagged (pFAT2), expressed in E. coli BL21(DE3) pRIL, Ni-NTA purified
T5 sequence (P57729 1-211): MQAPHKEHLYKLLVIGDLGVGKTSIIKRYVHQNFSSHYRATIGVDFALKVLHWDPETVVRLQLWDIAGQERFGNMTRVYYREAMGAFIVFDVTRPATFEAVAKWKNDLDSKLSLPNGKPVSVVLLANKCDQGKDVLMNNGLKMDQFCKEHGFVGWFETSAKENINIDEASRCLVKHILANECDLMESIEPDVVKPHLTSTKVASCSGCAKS

Rab23 [6] = target: T1, Rab23; experiment: as above; type: binding; details: labelled compound; Intu-Fuz GEF, Mg-GTP, pH 6.8, 30°C
Rab32 = target: T6, Rab32 (Homo sapiens, UniProt Q13637); experiment: as above; type: binding; details: labelled compound; Hps1-Hps4 GEF, Mg-GTP, pH 6.8, 30°C
T6 construct: GST-tagged (pFAT2), expressed in E. coli BL21(DE3) pRIL, Ni-NTA purified
T6 sequence (Q13637 2-225): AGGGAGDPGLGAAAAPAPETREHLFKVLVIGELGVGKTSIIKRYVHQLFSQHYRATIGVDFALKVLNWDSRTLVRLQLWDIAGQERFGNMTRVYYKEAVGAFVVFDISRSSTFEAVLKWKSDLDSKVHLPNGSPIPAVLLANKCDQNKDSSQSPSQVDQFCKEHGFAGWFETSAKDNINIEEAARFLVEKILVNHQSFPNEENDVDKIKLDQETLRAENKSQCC

Rab23 [7] = target: T3, Rab23; experiment: radiolabelled nucleotide binding, GST pull-down; details: labelled compound; pH 6.8
Rab23 [8] = target: T4, Rab23; experiment: radiolabelled nucleotide binding, GST pull-down; details: labelled compound; pH 6.8
Rab7 = target: T7, Rab7 (Homo sapiens, UniProt P51149); experiment: [3H]-GDP release GEF endpoint assay, glutathione-Sepharose capture; type: binding; details: labelled compound; Mon1-Ccz1 GEF, Mg-GTP, pH 6.8, 30°C
T7 construct: gene RAB7A; GST-tagged (pFAT2), expressed in E. coli BL21(DE3) pRIL, Ni-NTA purified
T7 sequence (P51149 2-207): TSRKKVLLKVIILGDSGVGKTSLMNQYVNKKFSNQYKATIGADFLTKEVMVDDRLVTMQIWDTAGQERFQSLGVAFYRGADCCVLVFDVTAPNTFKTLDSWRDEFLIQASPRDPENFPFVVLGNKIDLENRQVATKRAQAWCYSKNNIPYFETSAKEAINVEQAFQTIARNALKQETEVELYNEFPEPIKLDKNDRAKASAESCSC

Row | SMILES | GTP hydrolysis (Rab23 [1]) | GTP hydrolysis (Rab23 [2]) | GTP hydrolysis (Rab23 [3]) | GTP hydrolysis (Rab23 [4]) | GDP binding (Rab23 [5]) | GDP-GTP exchange (pmol) (Rab38) | GDP-GTP exchange (pmol) (Rab23 [6]) | GDP-GTP exchange (pmol) (Rab32) | GDP binding (Rab23 [7]) | GDP binding (Rab23 [8]) | GDP-GTP exchange (pmol) (Rab7)
1 | Nc1nc2c(ncn2[C@@H]2O[C@H](COP(=O)(O)OP(=O)(O)OP(=O)(O)O)[C@@H](O)[C@H]2O)c(=O)[nH]1 [GTP] | show an increased rate of basal GTP-hydrolysis (Figure S3H) | show an increased rate of basal GTP-hydrolysis (Figure S3H) | show an increased rate of basal GTP-hydrolysis (Figure S3H) | show an increased rate of basal GTP-hydrolysis (Figure S3H) |  |  |  |  |  |  | 
2 | Nc1nc2c(ncn2[C@@H]2O[C@H](COP(=O)(O)OP(=O)(O)O)[C@@H](O)[C@H]2O)c(=O)[nH]1 [GDP] |  |  |  |  | Both Rab23^N121I and the two disease-associated mutants have reduced GDP-binding properties (Figure S3G) | comparable to the Rab7 and Rab32/38-specific GEFs Mon1-Ccz1 and Hps1-Hps4, respectively (Figure 1D) | Intu-Fuz complexes show specific GEF activity toward Rab23 | comparable to the Rab7 and Rab32/38-specific GEFs Mon1-Ccz1 and Hps1-Hps4, respectively (Figure 1D) | Both Rab23^N121I and the two disease-associated mutants have reduced GDP-binding properties (Figure S3G) | Both Rab23^N121I and the two disease-associated mutants have reduced GDP-binding properties (Figure S3G) | comparable to the Rab7 and Rab32/38-specific GEFs Mon1-Ccz1 and Hps1-Hps4, respectively (Figure 1D)
